For 50 sequences, target mRNA inhibition results are on record in the OligoGym collection.

For the series, the target named is IRF4. Conditions: ASO.

Values joined by “and” are separate entries in the source; they are usually repeats but may differ in a detail not shown here. Equal values may be shown once. After the bases stand the sugars from the 5' end (letter, count) and the backbone: PS all phosphorothioate, else s phosphorothioate and o phosphodiester by linkage. Methylation of C is not given here. e = 2'-O-(2-methoxyethyl) (MOE); k = constrained ethyl (cEt); d = 2'-deoxy (DNA)

With GCCCAAAGGCTCCCGA (sugars k3 d10 k3, PS), the target mRNA inhibition (SK-MEL-28, 4 µM) worked out at 11%.
Consider GCCCAAGCCTTGAAGA (sugars k3 d10 k3, PS), for which the target mRNA inhibition (SK-MEL-28, 4 µM) is 15%.
Consider GCCCAATACATATCCA (sugars k3 d10 k3, PS), for which the target mRNA inhibition (SK-MEL-28, 4 µM) is 58%.
Regarding GCCCAGCAAGAGGCAC (sugars k3 d10 k3, PS), where the note is “SK-MEL-28, 4 µM”, the target mRNA inhibition worked out at 7%.
Turning to GCCCAGCTAGCGCGCA (sugars k3 d10 k3, PS), under “SK-MEL-28, 4 µM”, the target mRNA inhibition turned out to be 29%.
On to GCCCGCAAAAGAAACG (sugars k3 d10 k3, PS), for which the target mRNA inhibition (MM.1R, 1 µM) was 2%.
As to GCCGAAGCATTTTATC (sugars k3 d10 k3, PS), the target mRNA inhibition (SK-MEL-28, 4 µM) was 29%.
The same measure, in the same setting: the value for GCCGAGATATAAATAG (sugars k3 d10 k3, PS) was 40%; that for GCCGCCCTCCAGGTTC (sugars k3 d10 k3, PS) was 49%; that for GCCGGCCTGGCCCTTC (sugars k3 d10 k3, PS) was -14%.
GCCTAGGACTAAGGAC (sugars k3 d10 k3, PS): under “SK-MEL-28, 4 µM”, the target mRNA inhibition came to 33%.
Regarding GCCTTGGACGGCCCCG (sugars k3 d10 k3, PS), the target mRNA inhibition (SK-MEL-28, 4 µM) came to 23%.
Consider GCGCAAAACCCCTCAA (sugars k3 d10 k3, PS), for which the target mRNA inhibition (SK-MEL-28, 4 µM) was determined as 22%.
On the same count and under the same terms, the value for GCGCATAGGTCCTTCA (sugars k3 d10 k3, PS) was 63%; that for GCGCATTTCAGTAAAT (sugars k3 d10 k3, PS) was 33%; that for GCGCGGACGCACGGAG (sugars k3 d10 k3, PS) was 2%.
As to GCGCTCTCTCTGTAAC (sugars k3 d10 k3, PS), for the setting “MM.1R, 1 µM”, the target mRNA inhibition is -7%.
Regarding GCGGAGCATCAACAAA (sugars k3 d10 k3, PS), the target mRNA inhibition (SK-MEL-28, 4 µM) is 30%.
Still for that read-out and setting: the value for GCGGATAGATCTGTGG (sugars k3 d10 k3, PS) was 55%.
For the sequence GCTAACTGGCCTCAAA (sugars k3 d10 k3, PS), under “SK-MEL-28, 4 µM”, the target mRNA inhibition came out at 9%.
Same read-out and setting: the value for GCTACGCAATCTTCTG (sugars k3 d10 k3, PS) was 58%; that for GCTAGATAGCATTCTT (sugars k3 d10 k3, PS) was 56%.
The same measure, in the same setting: with GCTCACTAAGCTTGAT (sugars k3 d10 k3, PS) the figure was 56%; with GCTCAGCGCAGATGGG (sugars k3 d10 k3, PS), -2%.
On the same count and under the same terms, with GCTCATCCCGTCCAGC (sugars k3 d10 k3, PS) the figure was 15%.
For GCTCATGGCTGATAAT (sugars k3 d10 k3, PS), where the note is “MM.1R, 1 µM”, the target mRNA inhibition was -17%.
On the same count and under the same terms, with GCTCCCGACACGCGCC (sugars k3 d10 k3, PS) the figure was 3% and 19%.
As for GCTGAACTGTGTAATG (sugars k3 d10 k3, PS), the target mRNA inhibition (SK-MEL-28, 4 µM) was 58%.
The same measure, in the same setting: the value for GCTGAATGCTCTCCAT (sugars k3 d10 k3, PS) was 52%.
GCTGAGAGTTCAGGTC (sugars k3 d10 k3, PS): the target mRNA inhibition (MM.1R, 1 µM) turned out to be 7%.
With GCTGATAATTAATCTG (sugars k3 d10 k3, PS), where the note is “MM.1R, 1 µM”, the target mRNA inhibition is -9%.
On to GCTGATGGAGAAACGA (sugars k3 d10 k3, PS), for which the target mRNA inhibition (SK-MEL-28, 4 µM) came to 7%.
Regarding GCTGTCGATCTGGTCG (sugars k3 d10 k3, PS), the target mRNA inhibition (SK-MEL-28, 4 µM) amounted to 9%.
As to GCTGTCGATCTGGTCG (sugars k4 d8 k4, PS), the target mRNA inhibition (SK-MEL-28, 4 µM) is 6%.
For the sequence GCTTCCCGTTGCCGCA (sugars k3 d10 k3, PS), under “SK-MEL-28, 4 µM”, the target mRNA inhibition was 18%.
The same measure, in the same setting: the value for GGAAAGAGGCACCCTC (sugars k3 d10 k3, PS) was 28%; that for GGAAGCACTGGCATTG (sugars k3 d10 k3, PS) was 49%.
For the sequence GGAAGTTTACACTGGA (sugars k3 d10 k3, PS), the target mRNA inhibition is 41% and 42% (MM.1R, 0.0625 µM); 66% and 68% (MM.1R, 0.25 µM); 79% and 94% (MM.1R, 0.666 µM); 95% and 98% (MM.1R, 2 µM); 91% (MM.1R, 4 µM); 85% (SK-MEL-28, 4 µM).
Turning to “GGAAGTTTACACTGGA (sugars kddddddddddkekek, PS)”, the target mRNA inhibition (MM.1R, 1 µM) is 33%.
Take GGACAGCCAAACAAAC (sugars k3 d10 k3, PS): the target mRNA inhibition (SK-MEL-28, 4 µM) worked out at 7%.
Still for that read-out and setting: with GGACCTGGTCCAGGTT (sugars k3 d10 k3, PS) the figure was -2%; with GGACCTGGTCCAGGTT (sugars k4 d8 k4, PS), -28%.
Same read-out and setting: the value for GGACGAACGCGCAAAA (sugars k3 d10 k3, PS) was 35%; that for GGAGAAACGAGCCAGT (sugars k3 d10 k3, PS) was 47%; that for GGAGAAGTCCCGTGGA (sugars k3 d10 k3, PS) was 59%.
Turning to GGAGAATTAAGAAGAC (sugars k3 d10 k3, PS), where the note is “SK-MEL-28, 4 µM”, the target mRNA inhibition came out at 32%.
For the sequence GGAGATCCGGCAGCCC (sugars k3 d10 k3, PS), the target mRNA inhibition (SK-MEL-28, 4 µM) was 23%.
As to GGAGCTAGTTTTATGT (sugars k3 d10 k3, PS), where the note is “MM.1R, 1 µM”, the target mRNA inhibition was -28%.
In the case of GGAGTACCCGCAGAGA (sugars k3 d10 k3, PS), the target mRNA inhibition (SK-MEL-28, 4 µM) worked out at 25%.
Turning to GGATGCCACCATCCCA (sugars k3 d10 k3, PS), the target mRNA inhibition (SK-MEL-28, 4 µM) was -5%.
